Values after ≈ are worked out from the molar mass of the structure shown. *1 amine or outer side, *2 acyl side, *3 side chain or, on linkers, in order; H or OH if unused. Where a SMILES comes first, the peptide text is derived from it. Bridges are numbered along the chain shown (N, C = ends). [ ]: non-standard residue; d: D form. ξ: configuration not given here. X2 = CCCCCCCCCCCC(CC(=O)[*:1])O[*:2]; ξAsp(3ξ-OH) = NC(C(=O)O)C(O)C(=O)O; X1 = O=C(C1C(O)CCN1[*:1])[*:2]
Legend:
[1] = system: Clostridium cylindrosporum A9562; assay: MIC, serial two-fold dilution method (anaerobic); assay type: cell-based; settings: Clostridium cylindrosporum A9562, GAM agar medium, inoculum 10^7-10^8
[2] = system: Bacteroides fragilis CUH-9; assay: MIC, serial two-fold dilution method (anaerobic); assay type: cell-based; settings: Bacteroides fragilis CUH-9, GAM agar medium, inoculum 10^7-10^8
[3] = system: Bacteroides fragilis A20928-1; assay: MIC, serial two-fold dilution method (anaerobic); assay type: cell-based; settings: Bacteroides fragilis A20928-1, GAM agar medium, inoculum 10^7-10^8
[4] = system: Staphylococcus aureus A9748; assay: MIC, serial two-fold dilution method (aerobic); assay type: cell-based; settings: Staphylococcus aureus A9748, Mueller-Hinton agar, inoculum 10^4
[5] = system: Staphylococcus aureus A20610; assay: MIC, serial two-fold dilution method (aerobic); assay type: cell-based; settings: Staphylococcus aureus A20610, Mueller-Hinton agar, inoculum 10^4
Sarcina lutea PCI-1001 = assay: MIC, serial two-fold dilution method (aerobic); assay type: cell-based; settings: Sarcina lutea PCI-1001, Mueller-Hinton agar, inoculum 10^4
[6] = system: Neisseria gonorrhoeae A15112; assay: MIC, serial two-fold dilution method (aerobic); assay type: cell-based; settings: Neisseria gonorrhoeae A15112, GC medium, inoculum 10^6 CFU/ml
[7] = system: Propionibacterium acnes A21933; assay: MIC, serial two-fold dilution method (anaerobic); assay type: cell-based; settings: Propionibacterium acnes A21933, GAM agar medium, inoculum 10^7-10^8
[8] = system: Bacteroides fragilis A20926; assay: MIC, serial two-fold dilution method (anaerobic); assay type: cell-based; settings: Bacteroides fragilis A20926, GAM agar medium, inoculum 10^7-10^8
[9] = system: Clostridium perfringens A22787; assay: microbe, parasite or virus in culture; assay type: cell-based; settings: for minimum inhibitory concentration (MIC): Clostridium perfringens A22787, GAM agar medium, inoculum 10^7-10^8
[10] = system: Fusobacterium varium ATCC 8501; assay: MIC, serial two-fold dilution method (anaerobic); assay type: cell-based; settings: Fusobacterium varium ATCC 8501, GAM agar medium, inoculum 10^7-10^8
[11] = system: Staphylococcus aureus 209P; assay: MIC, serial two-fold dilution method (aerobic); assay type: cell-based; settings: Staphylococcus aureus 209P, Mueller-Hinton agar, inoculum 10^4
[12] = system: Veillonella alcalescens A21914-1; assay: MIC, serial two-fold dilution method (anaerobic); assay type: cell-based; settings: Veillonella alcalescens A21914-1, GAM agar medium, inoculum 10^7-10^8
[13] = system: Staphylococcus aureus #193; assay: MIC, serial two-fold dilution method (aerobic); assay type: cell-based; settings: Staphylococcus aureus #193, Mueller-Hinton agar, inoculum 10^4
[14] = system: Clostridium difficile A21972; assay: MIC, serial two-fold dilution method (anaerobic); assay type: cell-based; settings: Clostridium difficile A21972, GAM agar medium, inoculum 10^7-10^8
Protocol: (§1) The minimum inhibitory concentration (MIC) of Bu-2517 was determined for a variety of aerobic and anaerobic bacteria by the serial two-fold dilution method using a multi-inoculating apparatus. Mueller-Hinton agar was generally used for aerobic bacteria, GC medium (Eiken) for fastidious aerobic organisms such as streptococci, Neisseria and Haemophilus species, and GAM agar medium (Nissui) for anaerobic bacteria. The inoculum size was adjusted to 10^6 CFU/ml for streptococci, Neisseria and Haemophilus species, 10^4 for other aerobic bacteria and 10^7 -10^8 for all anaerobic organisms. Amphomycin, ampicillin, chloramphenicol, clindamycin, erthromycin, kanamycin and vancomycin were used as reference antibiotics.

[15] = system: Clostridium chauvoei A9561; assay: MIC, serial two-fold dilution method (anaerobic); assay type: cell-based; settings: Clostridium chauvoei A9561, GAM agar medium, inoculum 10^7-10^8
Protocol: as §1

[16] = system: Clostridium difficile A21675; assay: MIC, serial two-fold dilution method (anaerobic); assay type: cell-based; settings: Clostridium difficile A21675, GAM agar medium, inoculum 10^7-10^8
Protocol: as §1

[17] = system: Clostridium septicum A21869; assay: MIC, serial two-fold dilution method (anaerobic); assay type: cell-based; settings: Clostridium septicum A21869, GAM agar medium, inoculum 10^7-10^8
Protocol: as §1

[18] = system: Clostridium ramosum A21970; assay: MIC, serial two-fold dilution method (anaerobic); assay type: cell-based; settings: Clostridium ramosum A21970, GAM agar medium, inoculum 10^7-10^8
[19] = system: Bacteroides fragilis CUH-24; assay: MIC, serial two-fold dilution method (anaerobic); assay type: cell-based; settings: Bacteroides fragilis CUH-24, GAM agar medium, inoculum 10^7-10^8
[20] = system: Bacillus anthracis IID-115; assay: microbe, parasite or virus in culture; assay type: cell-based; settings: for minimum inhibitory concentration (MIC): Bacillus anthracis IID-115, Mueller-Hinton agar, inoculum 10^4
[21] = system: Staphylococcus aureus A20394; assay: MIC, serial two-fold dilution method (aerobic); assay type: cell-based; settings: Staphylococcus aureus A20394, Mueller-Hinton agar, inoculum 10^4
[22] = system: Bacillus subtilis ATCC 6633; assay: MIC, serial two-fold dilution method (aerobic); assay type: cell-based; settings: Bacillus subtilis ATCC 6633, Mueller-Hinton agar, inoculum 10^4
[23] = system: Haemophilus influenzae A9729; assay: MIC, serial two-fold dilution method (aerobic); assay type: cell-based; settings: Haemophilus influenzae A9729, GC medium, inoculum 10^6 CFU/ml
Strain G393-B445 = assay: Antibiotic sensitivity, paper disc-agar diffusion method; assay type: cell-based, Empedobacter sp.; parameters: key: S (sensitive); R (resistant); I (intermediate); settings: nutrient agar, 2 day's incubation at 28° C., Difco discs, amount/disc per antibiotic
E. coli NIHJ = assay: as above; assay type: cell-based; parameters: key: S (sensitive); R (resistant); I (intermediate); settings: nutrient agar, 2 day's incubation at 28° C., Difco discs, amount/disc per antibiotic
[24] = read-out: minimum inhibitory concentration (MIC)
[25] = Clostridioides difficile, read-out: minimum inhibitory concentration (MIC)

For `CCCCCCCCCCCC1CC(=O)N2CCCC2C(=O)NC(CO)C(=O)N2CCCC2C(=O)NC(CCCNC(=N)N)C(=O)NC(C(O)C(=O)O)C(=O)NC(CO)C(=O)N2CCC(O)C2C(=O)NC(C(O)C(=O)O)C(=O)O1` (centres unmarked) [Bu-2517] (PSPR[ξAsp(3ξ-OH)]S[X1][ξAsp(3ξ-OH)]; linker N-C via X2; configuration not given here), the “minimum inhibitory concentration (MIC)” value [1] was 1.6 µg/mL (≈ 1.42 µM), the “minimum inhibitory concentration (MIC)” value [2] was 100 µg/mL (≈ 88.8 µM) and the “minimum inhibitory concentration (MIC)” value [3] was 25 µg/mL (≈ 22.2 µM). For the same molecule, the “minimum inhibitory concentration (MIC)” value [4] was 1.6 µg/mL (≈ 1.42 µM), the “minimum inhibitory concentration (MIC)” value [5] was 1.6 µg/mL (≈ 1.42 µM) and the “minimum inhibitory concentration (MIC)” value (Sarcina lutea PCI-1001) was less than 0.05 µg/mL. For the same molecule, the “minimum inhibitory concentration (MIC)” value [6] was greater than 100 µg/mL, the “minimum inhibitory concentration (MIC)” value [7] was 1.6 µg/mL (≈ 1.42 µM) and the “minimum inhibitory concentration (MIC)” value [8] was 25 µg/mL (≈ 22.2 µM). For the same molecule, the “minimum inhibitory concentration (MIC)” value [9] was 3.1 µg/mL (≈ 2.75 µM), the “minimum inhibitory concentration (MIC)” value [10] was 50 µg/mL (≈ 44.4 µM) and the “minimum inhibitory concentration (MIC)” value [11] was 1.6 µg/mL (≈ 1.42 µM). The “minimum inhibitory concentration (MIC)” value [12] was 1.6 µg/mL (≈ 1.42 µM), the “minimum inhibitory concentration (MIC)” value [13] was 1.6 µg/mL (≈ 1.42 µM) and the “minimum inhibitory concentration (MIC)” value [14] was 1.6 µg/mL (≈ 1.42 µM). For the same molecule, the “minimum inhibitory concentration (MIC)” value [15] was 3.1 µg/mL (≈ 2.75 µM), the “minimum inhibitory concentration (MIC)” value [16] was 1.6 µg/mL (≈ 1.42 µM) and the “minimum inhibitory concentration (MIC)” value [17] was 1.6 µg/mL (≈ 1.42 µM). For the same molecule, the “minimum inhibitory concentration (MIC)” value [18] was 1.6 µg/mL (≈ 1.42 µM), the “minimum inhibitory concentration (MIC)” value [19] was greater than 100 µg/mL and the “minimum inhibitory concentration (MIC)” value [20] was 0.8 µg/mL (≈ 0.71 µM). For the same molecule, the “minimum inhibitory concentration (MIC)” value [21] was 1.6 µg/mL (≈ 1.42 µM), the “minimum inhibitory concentration (MIC)” value [22] was 0.8 µg/mL (≈ 0.71 µM) and the “minimum inhibitory concentration (MIC)” value [23] was greater than 100 µg/mL.

In the case of `CC1(C)S[C@@H]2[C@H](NC(=O)[C@H](N)c3ccccc3)C(=O)N2[C@H]1C(=O)O` [Ampicillin], the MIC [1, 24] is reported as 0.8 µg/mL (≈ 2.29 µM), the MIC ([2]; CUH9, read-out: minimum inhibitory concentration (MIC)) is reported as 3.1 µg/mL (≈ 8.87 µM) and the MIC ([3]; A209281, read-out: minimum inhibitory concentration (MIC)) is reported as 0.2 µg/mL (≈ 0.572 µM). The MIC [4, 24] was 25 µg/mL (≈ 71.5 µM), the MIC [5, 24] was 12.5 µg/mL (≈ 35.8 µM) and the MIC (Sarcina lutea PCI-1001; Micrococcus luteus, PCI1001, read-out: minimum inhibitory concentration (MIC)) was less than 0.05 µg/mL. For the same molecule, the MIC [6, 24] was 0.4 µg/mL (≈ 1.14 µM), the MIC ([7]; Cutibacterium acnes, read-out: minimum inhibitory concentration (MIC)) was 0.2 µg/mL (≈ 0.572 µM) and the MIC [8, 24] was 0.2 µg/mL (≈ 0.572 µM). The MIC ([9]; Clostridium perfringens, A22787, read-out: minimum inhibitory concentration (MIC)) was 0.1 µg/mL (≈ 0.286 µM), the “Sensitivity Strain G393-B445” value (Strain G393-B445) was “S” and the MIC ([10]; ATCC8501, read-out: minimum inhibitory concentration (MIC)) was 12.5 µg/mL (≈ 35.8 µM). For the same molecule, the MIC [11, 24] was 0.013 µg/mL (≈ 0.0372 µM), the MIC ([12]; Veillonella parvula, A219141, read-out: minimum inhibitory concentration (MIC)) was 0.025 µg/mL (≈ 0.0715 µM) and the MIC [13, 24] was 1.6 µg/mL (≈ 4.58 µM). The “Sensitivity E. coli NIHJ” value (E. coli NIHJ) was “S”, the MIC [14, 25] was 0.2 µg/mL (≈ 0.572 µM) and the MIC [15, 24] was 0.4 µg/mL (≈ 1.14 µM). It also gave an MIC [16, 25] of 1.6 µg/mL (≈ 4.58 µM), an MIC [17, 24] of 0.8 µg/mL (≈ 2.29 µM) and an MIC ([18]; Thomasclavelia ramosa, read-out: minimum inhibitory concentration (MIC)) of 0.8 µg/mL (≈ 2.29 µM). It also gave an MIC ([19]; CUH24, read-out: minimum inhibitory concentration (MIC)) of 50 µg/mL (≈ 143 µM), an MIC ([20]; Bacillus anthracis, IID115, read-out: minimum inhibitory concentration (MIC)) of 0.013 µg/mL (≈ 0.0372 µM) and an MIC [21, 24] of 3.1 µg/mL (≈ 8.87 µM). The MIC ([22]; ATCC6633, read-out: minimum inhibitory concentration (MIC)) was 0.013 µg/mL (≈ 0.0372 µM) and the MIC [23, 24] was 0.8 µg/mL (≈ 2.29 µM).

With Amphomycin the “minimum inhibitory concentration (MIC)” value [1] was 25 µg/mL, the “minimum inhibitory concentration (MIC)” value [2] was greater than 100 µg/mL and the “minimum inhibitory concentration (MIC)” value [3] was 25 µg/mL. For the same molecule, the “minimum inhibitory concentration (MIC)” value [4] was 6.3 µg/mL, the “minimum inhibitory concentration (MIC)” value [5] was 3.1 µg/mL and the “minimum inhibitory concentration (MIC)” value (Sarcina lutea PCI-1001) was 0.8 µg/mL. The “minimum inhibitory concentration (MIC)” value [6] was greater than 100 µg/mL, the “minimum inhibitory concentration (MIC)” value [7] was 3.1 µg/mL and the “minimum inhibitory concentration (MIC)” value [8] was 50 µg/mL. The “minimum inhibitory concentration (MIC)” value [9] was 12.5 µg/mL, the “minimum inhibitory concentration (MIC)” value [10] was 25 µg/mL and the “minimum inhibitory concentration (MIC)” value [11] was 3.1 µg/mL. The “minimum inhibitory concentration (MIC)” value [12] was 25 µg/mL, the “minimum inhibitory concentration (MIC)” value [13] was 3.1 µg/mL and the “minimum inhibitory concentration (MIC)” value [14] was 25 µg/mL. For the same molecule, the “minimum inhibitory concentration (MIC)” value [15] was 6.3 µg/mL, the “minimum inhibitory concentration (MIC)” value [16] was 3.1 µg/mL and the “minimum inhibitory concentration (MIC)” value [17] was 6.3 µg/mL. For the same molecule, the “minimum inhibitory concentration (MIC)” value [18] was 25 µg/mL, the “minimum inhibitory concentration (MIC)” value [19] was greater than 100 µg/mL and the “minimum inhibitory concentration (MIC)” value [20] was 0.8 µg/mL. The “minimum inhibitory concentration (MIC)” value [21] was 3.1 µg/mL, the “minimum inhibitory concentration (MIC)” value [22] was 1.6 µg/mL and the “minimum inhibitory concentration (MIC)” value [23] was greater than 100 µg/mL.

Source: patent publication US4409210A, “Antibiotic compound” (priority 1982, dated 1983)
